In PMC5504036, “A tricyclic antidepressant, amoxapine, reduces amyloid-β generation through multiple serotonin receptor 6-mediated targets” (Scientific Reports, 2017):
pEC50: −log10 of the molar value.

Molecular target: T1, serotonin receptor 6 (HTR6) (Homo sapiens, UniProt P50406)
T1 construct: human HTR6 expressed by lentivirus in SK-N-SH cells
Assay: GloSensor cAMP assay (agonist) in SK-N-SH cells infected with HTR6 lentivirus
Assay type: cell-based

T1 sequence (P50406 whole entry): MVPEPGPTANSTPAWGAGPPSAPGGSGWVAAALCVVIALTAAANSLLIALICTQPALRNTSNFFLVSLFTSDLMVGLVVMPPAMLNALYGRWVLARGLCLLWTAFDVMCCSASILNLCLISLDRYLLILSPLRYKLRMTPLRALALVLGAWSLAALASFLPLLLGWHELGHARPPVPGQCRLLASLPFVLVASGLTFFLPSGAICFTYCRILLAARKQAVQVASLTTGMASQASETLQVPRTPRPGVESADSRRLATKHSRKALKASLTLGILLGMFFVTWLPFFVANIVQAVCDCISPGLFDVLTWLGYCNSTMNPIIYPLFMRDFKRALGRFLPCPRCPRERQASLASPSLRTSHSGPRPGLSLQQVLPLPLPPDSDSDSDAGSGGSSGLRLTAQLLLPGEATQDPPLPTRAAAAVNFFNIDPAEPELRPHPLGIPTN

Cc1[nH]c2ccc(Cl)cc2c1CCN(C)C [ST1936]
pEC50: 8.77
